From US8765791B2, “Method of treating cancer using a neuropeptide Y 5R (NP Y5R) antagonist” (University Health Network, priority 2008, dated 2014)

What was measured:
mouse NPY6R = target: T1, mouse NPY6R (Mus musculus, UniProt Q61212); conditions: at a concentration of 10 μM; cited from earlier work
T1 sequence (Q61212 1-371): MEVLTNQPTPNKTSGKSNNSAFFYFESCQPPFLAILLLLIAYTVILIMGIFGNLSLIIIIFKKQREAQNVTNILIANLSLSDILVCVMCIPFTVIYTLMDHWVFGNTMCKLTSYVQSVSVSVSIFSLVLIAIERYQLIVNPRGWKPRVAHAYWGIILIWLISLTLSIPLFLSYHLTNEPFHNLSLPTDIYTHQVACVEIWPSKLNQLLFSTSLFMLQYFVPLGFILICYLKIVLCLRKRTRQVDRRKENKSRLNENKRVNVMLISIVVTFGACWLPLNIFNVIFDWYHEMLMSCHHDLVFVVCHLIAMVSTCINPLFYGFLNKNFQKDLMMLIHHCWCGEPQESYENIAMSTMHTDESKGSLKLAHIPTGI

human NPY1R = target: T2, human NPY1R (Homo sapiens, UniProt P25929); conditions: at a concentration of 10 μM; cited from earlier work
T2 sequence (P25929 1-384): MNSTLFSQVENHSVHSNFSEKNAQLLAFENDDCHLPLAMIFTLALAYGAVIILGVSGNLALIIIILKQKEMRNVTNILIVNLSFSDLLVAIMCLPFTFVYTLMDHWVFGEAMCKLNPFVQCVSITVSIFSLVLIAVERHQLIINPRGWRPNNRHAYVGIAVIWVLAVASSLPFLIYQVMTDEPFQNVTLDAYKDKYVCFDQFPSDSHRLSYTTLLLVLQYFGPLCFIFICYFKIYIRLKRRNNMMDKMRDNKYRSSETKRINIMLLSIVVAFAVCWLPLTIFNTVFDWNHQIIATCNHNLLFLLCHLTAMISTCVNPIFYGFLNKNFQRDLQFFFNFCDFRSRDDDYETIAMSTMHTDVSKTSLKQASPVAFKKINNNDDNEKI

[1] = tested on: Colon cancer cells, HCT-15; experiment: colon cancer xenograft model (Example 8); format: in vivo, CB17-SCID mice
Description: Colon cancer cells, HCT-15, (1×10^6) were implanted in CB17-SCID mice. The mice were treated with MK0557 at 30 mg/kg or vehicle (15% of 0.5%) CMC (carboxymethylcelulose) (low viscosity) and 85% of 0.2% Tween80 in water) intraperitoneally daily for the first week followed by once every two days injections.

human NPY2R = target: T3, human NPY2R (Homo sapiens, UniProt P49146); conditions: at a concentration of 10 μM; cited from earlier work
T3 sequence (P49146 1-381): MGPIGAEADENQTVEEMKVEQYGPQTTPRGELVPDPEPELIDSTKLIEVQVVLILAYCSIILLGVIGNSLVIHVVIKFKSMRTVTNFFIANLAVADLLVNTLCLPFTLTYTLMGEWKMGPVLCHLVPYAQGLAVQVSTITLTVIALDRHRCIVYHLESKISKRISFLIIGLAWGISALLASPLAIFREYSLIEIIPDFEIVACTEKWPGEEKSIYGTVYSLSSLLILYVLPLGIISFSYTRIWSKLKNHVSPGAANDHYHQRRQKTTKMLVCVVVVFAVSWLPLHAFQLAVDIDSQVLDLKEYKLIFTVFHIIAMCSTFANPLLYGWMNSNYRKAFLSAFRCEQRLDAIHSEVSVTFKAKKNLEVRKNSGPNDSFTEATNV

[2] = cited from earlier work
MCF-7 cells = experiment: breast cancer xenograft model (Example 4); format: in vivo, SCID mice
Description: MCF-7 cells were dissociated from flask surfaces then counted and spun down with a final concentration of 10×10^7 cells/ml produced. A total of 20 SCID mice, aged 6-8 weeks (CRL-CB17), were injected with 10×10^6 cells into lower mammary fat pads. After 3 weeks, all mice were inspected for tumor establishment and were measured for size (FIG. 5).
For this study, a total of 15 mice were selected from a group of 20, which had similar tumor sizes (3×3). Subsequently, these 15 mice were divided into three groups of 5. The first group, the control group, received the vehicle only (20% ETOH and 80% PEG 400); the second group received a dosage of 30 mg/kg of MK0557; and the third group received a dosage of 15 mg/kg of MK0557.
All groups were injected everyday via IP for the first five days, followed by injections every other day.

human NPY4R = human NPY4R (Homo sapiens, UniProt P50391); conditions: at a concentration of 10 μM; cited from earlier work
[3] = tested on: Hodgkin Lymphoma cells, HD-MYZ; experiment: Hodgkin lymphoma xenograft model (Example 5); format: in vivo, NOD-SCID mice; conditions: 30 mg/kg ip 2/week, to day 36
Description: Hodgkin Lymphoma cells, HD-MYZ, (4 million) were injected subcutaneously on the left flank of 10-12 week old, female NOD-SCID mice (from The Jackson Lab, Cat#001303). […] The mice were sacrificed on day 36 when the experiment ended (FIG. 6).

Rat glioma cells = experiment: brain cancer xenograft model (Example 7); format: in vivo, CB17-SCID mice
Description: Rat glioma cells (2×10^6) were implanted in CB17-SCID mice. The mice were treated with MK0557 at 30 mg/kg, or vehicle (15% of 0.5%) CMC (carboxymethylcelulose) (low viscosity) and 85% of 0.2% Tween80 in water) intraperitoneally daily for the first week followed by once every two days injections.

Lung cancer cells, H358 = experiment: lung cancer xenograft model (Example 9); format: in vivo, CB17-SCID mice
Description: Lung cancer cells, H358, (1×10^6) were implanted in CB17-SCID mice. Ten days post-implantation, the mice were treated with MK0557 at 30 mg/kg or vehicle (15% of 0.5%) CMC (carboxymethylcelulose) (low viscosity) and 85% of 0.2% Tween80 in water) intraperitoneally daily for the first week followed by once every two days injections.

[4] = tested on: Ovarian cancer cells SKOV-3; experiment: ovarian cancer xenograft model (Example 13); format: in vivo, SCID mice; conditions: 30 mg/kg i.p. 3/week
Text: Ovarian cancer cells SKOV-3 (5 millions) were implanted s.c. on the right flank of SCID mice (CB17, female, 4-6 weeks) (Charles River, Wilmington, Mass.). The mice were divided into four groups, 5 mice for each group. The treatments were started when the tumor volume reached at around 60 mm3, day 8 after tumor implantation. […] The tumor growth was monitored for the duration of the experiment. […] (FIG. 14)

[5] = 30 mg/kg intraperitoneally daily first week then once every two days

human NPY4R, sequence (P50391 whole entry): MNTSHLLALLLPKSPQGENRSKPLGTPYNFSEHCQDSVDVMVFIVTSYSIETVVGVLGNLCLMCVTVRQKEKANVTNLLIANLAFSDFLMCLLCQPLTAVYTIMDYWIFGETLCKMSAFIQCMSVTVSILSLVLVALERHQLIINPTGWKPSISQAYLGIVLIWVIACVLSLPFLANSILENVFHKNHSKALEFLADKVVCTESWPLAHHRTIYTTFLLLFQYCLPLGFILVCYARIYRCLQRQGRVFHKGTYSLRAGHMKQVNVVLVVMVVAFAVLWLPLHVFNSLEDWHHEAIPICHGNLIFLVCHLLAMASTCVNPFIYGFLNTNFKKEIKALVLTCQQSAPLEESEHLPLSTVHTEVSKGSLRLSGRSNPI

O=C1O[C@]2(CC[C@H](C(=O)Nc3ccn(-c4ccccc4F)n3)CC2)c2cnccc21 [MK-0557, trans-N-[1-(2-fluorophenyl)-3-pyrazolyl]-3-oxospiro[6 azaisobenzofuran-1(3H), 1′-cyclohexane]-4′carboxamide]
binding to mouse NPY6R (mouse NPY6R): does not significantly bind
binding to human NPY1R (human NPY1R): does not significantly bind
effect on mouse body weights ([1]; 30 mg/kg intraperitoneally): no obvious effect
tumor growth [1, 5]: Tumor growth was inhibited
binding to human NPY2R (human NPY2R): does not significantly bind
reduction in weight regain ([2]; following very-low-calorie-diet induced weight loss): did not result in a clinically meaningful reduction in weight regain
weight loss ([2]; overweight or obese adults, 1 mg/day, 5 mg/day or 25 mg/day): did not induce clinically meaningful weight loss
mice tumor free (MCF-7 cells; 30 mg/kg IP, third week): 4 out of 5
tumor growth (MCF-7 cells; MCF-7 xenograft, 30 mg/kg and 15 mg/kg IP): dose-dependent inhibition of tumor growth
tumor size in treated groups (MCF-7 cells; second week, 30 mg/kg and 15 mg/kg IP): tumor shrinkage was noticed
binding to human NPY4R (human NPY4R): does not significantly bind
tumor growth [3]: inhibition of tumor growth
effect on mouse body weights (Rat glioma cells; 30 mg/kg intraperitoneally): no obvious effect
tumor growth (Rat glioma cells; [5]): Tumor growth was inhibited
effect on mouse body weights (Lung cancer cells, H358; 30 mg/kg intraperitoneally): no obvious effect
tumor growth (Lung cancer cells, H358; [5]): Tumor growth was inhibited
tumor growth [4]: inhibited tumor growth
